PMC10511417, “Salmonid polysialyltransferases to generate a variety of sialic acid polymers” (Scientific Reports, 2023)

Tested on: T1, CmaST8Sia IV (CmaΔ28ST8Sia IV; fish ST8Sia IV)
T1 construct: gene st8sia4; soluble Δ28 form lacking the first 28 residues (cytoplasmic tail and transmembrane domain), N-terminal 3xFLAG (p3×FLAG-CMV9), secreted by HEK293 cells; crude culture medium; ~52 kDa N-glycosylated; cDNA cloned from C. maraena with 1074 bp amplicon; printed XM_041897387 is Coregonus clupeaformis homologue
Assay: MicroPlate Sialyltransferase Assay (click biotinylation, anti-biotin-HRP), Michaelis-Menten fit
Format: biochemical, Coregonus maraena
Details: acceptor CD166/ALCAM 400 ng; cacodylate buffer pH 6.4, 27 °C, 4 h; 0-100 µM donor; crude culture medium as enzyme; read-out: apparent Km

Km: 17.6 ± 2.52 µM
SMILES: C#CCCC(=O)N[C@H]1[C@H]([C@H](O)[C@H](O)CO)OC(OP(=O)(O)OC[C@H]2O[C@@H](n3ccc(N)nc3=O)[C@H](O)[C@@H]2O)(C(=O)O)C[C@@H]1O (stereo partly shown) [CMP-SiaNAl]
